Data set [1] is described as follows: Lipophilicity, shake-flask log D7.4 (1-octanol/PBS). The format is physicochemical. The settings on record: 1-octanol/PBS pH 7.4, n = 4. The procedure:
Lipophilicity was determined with the shake-flask method as a distribution coefficient between 0.01 M PBS and octanol. Purified radiotracer [^18F]6 (10 μL, ∼200 kBq, 1.5 nmol), [^18F]14 (20 μL, ∼260 kBq, 125 pmol), or [^18F]15 (20 μL, 144 kBq, 67 pmol) in a polypropylene tube containing 1500–2000 μL of each in a 1:1 mixture (1-octanol, 0.02 M PBS, pH 7.4) was shaken mechanically (500 rpm, 10 min) and centrifuged (1000g, 5 min), and samples from each layer (400 μL, n = 4) were measured with a γ-counter. The log D7.4 was calculated as a distribution between the two layers at pH 7.4. [^18F]6 (10 MBq, 40 nmol) diluted with 0.01 M PBS at pH 7.4 (≤1% ethanol, 5300 μL) was incubated for 180 min. At selected time points (5, 30, 60, 90, 120, 150, and 180 min), a sample (100 μL) was injected to radio-HPLC. [^18F]14 and [^18F]15 (29 MBq, 10 nmol) diluted in 2000 μL of 0.01 M PBS (≤1% ethanol) were left to incubate. A sample of [^18F]14 (100 μL) after 9 hours and [^18F]15 at selected time points between 30 and 335 min were injected into HPLC (method A). [^18F]15 (0.6 MBq, 0.134 nmol, 200 μL) formulated in ≤5% EtOH-1 × PBS was added and incubated in 2000 μL of PBS-50% human plasma at 37 °C. A 100 μL sample (at 60, 120, 180, and 240 min, n = 2) was diluted with 200 μL of cold acetonitrile and centrifuged (10,000g, 5 min). After centrifugation, a 100 μL sample of the supernatant was injected for radio-HPLC analysis. […]
Lipophilicity. The lipophilicities were determined with the shake-flask method as a distribution profile between 0.01 M PBS and octanol at pH 7.4. The distribution of the radiolabeled compound between the octanol and the PBS layers was calculated according

Data set [2] is described as follows: Hydrolytic stability in 0.01 M PBS / formulated solution (radio-HPLC). The settings on record: t = 3 h, 0.01 M PBS, pH 7.4. It counts as physicochemical. How it is done:
Lipophilicity was determined with the shake-flask method as a distribution coefficient between 0.01 M PBS and octanol. Purified radiotracer [^18F]6 (10 μL, ∼200 kBq, 1.5 nmol), [^18F]14 (20 μL, ∼260 kBq, 125 pmol), or [^18F]15 (20 μL, 144 kBq, 67 pmol) in a polypropylene tube containing 1500–2000 μL of each in a 1:1 mixture (1-octanol, 0.02 M PBS, pH 7.4) was shaken mechanically (500 rpm, 10 min) and centrifuged (1000g, 5 min), and samples from each layer (400 μL, n = 4) were measured with a γ-counter. The log D7.4 was calculated as a distribution between the two layers at pH 7.4. [^18F]6 (10 MBq, 40 nmol) diluted with 0.01 M PBS at pH 7.4 (≤1% ethanol, 5300 μL) was incubated for 180 min. At selected time points (5, 30, 60, 90, 120, 150, and 180 min), a sample (100 μL) was injected to radio-HPLC. [^18F]14 and [^18F]15 (29 MBq, 10 nmol) diluted in 2000 μL of 0.01 M PBS (≤1% ethanol) were left to incubate. A sample of [^18F]14 (100 μL) after 9 hours and [^18F]15 at selected time points between 30 and 335 min were injected into HPLC (method A). [^18F]15 (0.6 MBq, 0.134 nmol, 200 μL) formulated in ≤5% EtOH-1 × PBS was added and incubated in 2000 μL of PBS-50% human plasma at 37 °C. A 100 μL sample (at 60, 120, 180, and 240 min, n = 2) was diluted with 200 μL of cold acetonitrile and centrifuged (10,000g, 5 min). After centrifugation, a 100 μL sample of the supernatant was injected for radio-HPLC analysis.

Data set [3] can be described thus: PET/CT and ex vivo biodistribution of [18F]6 in healthy mice. The settings on record: i.v.; for bone uptake in tibia / gallbladder uptake: 270 min post injection. The arrangement: species or system male SCID and female C57BL/6JRj mice. How it is done:
[^18F]6 in 10% ethanol–0.01 M PBS was administered intravenously to male Fox Chase SCID mice (CB.17 SCID) (11.0 ± 0.5 MBq, ∼11 nmol, ∼150 μL, n = 4) and healthy female C57BL/6JRj mice (11.3 ± 0.3 MBq, ∼11 nmol, ∼150 μL, n = 4) under 2% isoflurane anesthesia. The PET/CT image was acquired with Inveon PET/CT for 60 min followed by a 15 min static scan 4 h after injection of the tracer. The images of the dynamic scan were reconstructed to time frames 60 × 10, 10 × 60, 4 × 300, and 3 × 600 s. After the second PET imaging (t = 270 ± 1.9 min post injection, n = 4), the organs were harvested and the radioactivity in each tissue sample was measured with a γ-counter and reported as a percentage of injected dose per gram of tissue (% ID/g). [^18F]15 was formulated in 4% ethanol in 0.01 M PBS and administered intravenously (0.2 nmol, 0.80 ± 0.30 MBq; tracer: 150 μL; tracer + blocking dose: 200 μL) to AR42J tumor-bearing Rj:NMRI-Foxn1^nu/nu mice (n = 4) under 2% isoflurane anesthesia. PET/CT images were acquired with Molecubes PET (β-CUBE) coupled with a CT (X-CUBE) (MOLECUBES NV, Ghent, Belgium) with two mice being imaged at the same time under 2% isoflurane anesthesia. Images were reconstructed to time frames 30 × 10, 15 × 60, 4 × 300, and 5 × 600 s. Quantitative image analysis was done with Carimas software (v 2.10, Turku PET Centre, Turku, Finland). Spherical ROIs were hand-drawn based on anatomical CT data and PET signal for the desired organs. The results are presented as standardized uptake values (SUVs).

SMILES strings stand for the structures.

A word on the logD: it is lipophilicity at a set pH, counting ionised and neutral species. Lower therefore signals a more hydrophilic compound. As to `C[N+](C)(CCNC(=O)Cc1ccc(-c2nncnn2)cc1)C[B-](F)(F)[18F]` [[^18F]6], in data set [1], the logD is -0.13 ± 0.06. The “hydrolytic stability, intact” value in data set [2] is no less than 99%. Besides, in data set [3] (C57BL/6JRj female mice), the “bone uptake in tibia” value is given as 0.4 ± 0.1 % ID/g and the gallbladder uptake was found to be 6.4 ± 2.5 % ID/g. In data set [3] (SCID male mice), the “bone uptake in tibia” value was determined as 0.3 ± 0.1 % ID/g and the gallbladder uptake came out at 3.5 ± 2.4 % ID/g. Also, the major elimination pathway entry in data set [3] (PET/CT and ex vivo biodistribution 270 min post injection) is reported as “renal clearance”.
